In patent publication US20260041683A1, “Compounds with Anti-Acinetobacter Baumannii Activity” (University of Kentucky Research Foundation, priority 2022, published 2026):
In brackets after ≈: the same amount, converted by molar mass. Where two headings read alike, the source gives them in different places.

Assays:
Ab ATCC 19606 (strain I) = assay: MIC determination (double dilution, Mueller-Hinton broth); format: cell-based, Acinetobacter baumannii; conditions: Acinetobacter baumannii, ATCC19606
Method: All bacterial strains listed above were stored at −80° C. All strains were streaked on Mueller-Hinton (MH) plates and allowed to grow at 37° C. overnight. […] The resulting culture was diluted 1:1000 and added to the prepared serially doubly diluted compound solutions in 96-well plates. For M. smegmatis, a 1:100 dilution of the bacteria was done in MH. All MIC values were determined using 96-well plates with low evaporation seals at least in duplicate. For each row, one well was reserved for sterile control (which consisted of 200 μL of MH medium) and another well was reserved for growth control (which consisted of 100 μL of MH medium seeded with 100 μL of bacterial culture).
(§1) Minimum inhibitory concentrations (MIC) of all compounds from the series were measured in liquid cultures of different Ab strains by a double-dilution method in Mueller-Hinton broth. Initially, the activity of all 46 compounds against Ab ATCC 19606 (a control strain) and Ab ATCC BAA1605 (a multidrug-resistant strain) (Table 1; data shown for 27 representative compounds) was measured.

[1] = tested on: Ab ATCC BAA1605 (strain J, multidrug-resistant); assay: MIC determination; format: cell-based; conditions: Acinetobacter baumannii
Method: (§2) All bacterial strains listed above were stored at −80° C. All strains were streaked on Mueller-Hinton (MH) plates and allowed to grow at 37° C. overnight. Enough colonies were scraped from the plate and suspended in MH broth with vortexing to reach an attenuance at 600 nm (OD600) of ˜0.5. The resulting culture was diluted 1:1000 and added to the prepared serially doubly diluted compound solutions in 96-well plates. For M. smegmatis, a 1:100 dilution of the bacteria was done in MH. All MIC values were determined using 96-well plates with low evaporation seals at least in duplicate. For each row, one well was reserved for sterile control (which consisted of 200 μL of MH medium) and another well was reserved for growth control (which consisted of 100 μL of MH medium seeded with 100 μL of bacterial culture).
as §1

K. pneumoniae ATCC 27736 = assay: MIC determination; format: cell-based; conditions: Klebsiella pneumoniae, ATCC27736
P. aeruginosa ATCC 27853 = assay: MIC determination; format: cell-based; conditions: Pseudomonas aeruginosa, ATCC27853
E. coli ATCC BAA 2469 = assay: MIC determination; format: cell-based; conditions: Escherichia coli, BAA2469; Table 3
[2] = tested on: K. pneumoniae ATCC BAA 1705; assay: MIC determination; format: cell-based; conditions: Klebsiella pneumoniae, BAA1705; Table 3
[3] = tested on: all 43 strains of A. baumannii (41 CDC strains and 2 ATCC strains); assay: MIC value statistics for all A. baumannii strains; format: cell-based, Acinetobacter baumannii; conditions: of 43 A. baumannii strains
Method: as §2, with “[…].” for “For M. smegmatis, a 1:100 dilution of the bacteria was done in MH. All MIC values were determined using 96-well plates with low evaporation seals at least in duplicate.”
Having established that the observed activity is selective to A. baumannii, all synthesized compounds were tested against a panel of antibiotic resistant A. baumannii from the Antimicrobial Resistant (AR) Isolate Bank from the CDC along with strains I and J (Table Si). […]. Based on this statistical analysis, the best compound is 5e followed closely by 3e.

B. anthracis Sterne F32 = assay: microbe, parasite or virus in culture; format: cell-based; conditions: Bacillus anthracis
S. enterica ATCC 14028 = assay: MIC determination; format: cell-based; conditions: Salmonella enterica, ATCC14028
E. cloacae ATCC 13047 = assay: MIC determination; format: cell-based; conditions: Enterobacter cloacae, ATCC13047
[4] = tested on: S. epidermidis ATCC 12228; assay: MIC determination; format: cell-based; conditions: Staphylococcus epidermidis, ATCC12228
S. aureus ATCC 25923 = assay: MIC determination; format: cell-based; conditions: Staphylococcus aureus, ATCC25923
E. coli MC1061 = assay: MIC determination; format: cell-based; conditions: Escherichia coli; Table 5; Mueller-Hinton medium; D = E. coli MC1061; read-out: MIC strain D
Gram-negative bacteria = assay: MIC determination, panel statement; format: cell-based; conditions: moderate activity
Ab ATCC 19606 [5] = assay: Development of resistance, 15-passage MIC assay; format: cell-based, Acinetobacter baumannii; conditions: Acinetobacter baumannii, ATCC19606, read-out: MIC before passaging
Ab ATCC 19606 [6] = assay: Time-kill curves
Y. pestis CO92 = assay: microbe, parasite or virus in culture; format: cell-based; conditions: Yersinia pestis, CO92, read-out: MIC Y. pestis CO92
M. smegmatis = assay: MIC determination; format: cell-based, Mycobacterium smegmatis; conditions: Mycolicibacterium smegmatis; Table 4
[7] = Table 1, control strain, read-out: MIC Ab ATCC 19606
[8] = Table 1, multidrug-resistant strain, read-out: MIC Ab ATCC BAA 1605
[9] = Table 3, positive control strain, read-out: MIC A. Baumannii ATCC BAA 1605
[10] = Table 3, read-out: MIC K. pneumoniae ATCC 27736
[11] = Table 3, read-out: MIC P. aeruginosa ATCC 27853
[12] = Table 5, Mueller-Hinton medium, I = A. baumannii ATCC 19606, read-out: MIC strain I
[13] = Table 5, Mueller-Hinton medium, J = A. baumannii BAA1605, read-out: MIC strain J
[14] = Table 5, Mueller-Hinton medium, F = K. pneumoniae ATCC 27736, read-out: MIC strain F
[15] = Table 5, Mueller-Hinton medium, G = P. aeruginosa ATCC 27853, read-out: MIC strain G
[16] = STERNEF32, read-out: MIC strain A
[17] = Table 5, Mueller-Hinton medium, H = S. enterica ATCC 14028, read-out: MIC strain H
[18] = Table 5, Mueller-Hinton medium, E = E. cloacae ATCC 13047, read-out: MIC strain E
[19] = Table 5, Mueller-Hinton medium, C = S. epidermidis ATCC 12228, read-out: MIC strain C
[20] = Table 5, Mueller-Hinton medium, B = S. aureus ATCC 25923, read-out: MIC strain B

Compound | MIC (Ab ATCC 19606 (strain I); [7]) [µg/mL] | MIC [1, 8] [µg/mL] | MIC [1, 9] [µg/mL] | MIC (K. pneumoniae ATCC 27736; [10]) [µg/mL] | number of compound/strain combinations with MIC value 0.25 μg/mL [3] | number of compound/strain combinations with MIC value 0.5 μg/mL [3] | number of compound/strain combinations with MIC value 1 μg/mL [3] | number of compound/strain combinations with MIC value 2 μg/mL [3] | number of compound/strain combinations with MIC value ≤0.125 μg/mL [3] | MIC (Ab ATCC 19606 (strain I); [12]) [µg/mL] | MIC [1, 13] [µg/mL] | MIC (K. pneumoniae ATCC 27736; [14]) [µg/mL] | MIC (P. aeruginosa ATCC 27853; [15]) [µg/mL] | MIC (B. anthracis Sterne F32; [16]) [µg/mL] | MIC (S. enterica ATCC 14028; [17]) [µg/mL] | MIC (E. cloacae ATCC 13047; [18]) [µg/mL] | MIC [4, 19] [µg/mL] | MIC (S. aureus ATCC 25923; [20]) [µg/mL] | MIC (E. coli MC1061) [µg/mL] | MIC (Gram-negative bacteria) [µg/mL] | also measured
COc1cccc(NNC(=O)c2ccccn2)c1 [Compound 2c] | 0.5 (≈ 2.06 µM) | 1 (≈ 4.11 µM) | 1 (≈ 4.11 µM) | > 128 | 5 | 6 | 28 | 3 | 1 | – | – | – | – | – | – | – | – | – | – | – | MIC (P. aeruginosa ATCC 27853; [11]): > 128 µg/mL; MIC (E. coli ATCC BAA 2469): > 128 µg/mL; MIC [2]: > 128 µg/mL
O=C(NNc1ccc(Cl)cc1)c1ccccc1 [Compound 10e] | – | – | – | – | 23 | 6 | 1 | – | 13 | 0.25 (≈ 1.01 µM) | 0.5 (≈ 2.03 µM) | 16 (≈ 64.9 µM) | > 64 | > 64 | 64 (≈ 259 µM) | 16 (≈ 64.9 µM) | 64 (≈ 259 µM) | 64 (≈ 259 µM) | 16 (≈ 64.9 µM) | 4 to 16 (≈ 16.2 to 64.9 µM) | –
O=C(NNc1ccc(Cl)cc1)c1ccc(F)cc1F [Compound 1e] | 0.25 (≈ 0.884 µM) | 0.25 (≈ 0.884 µM) | – | – | 17 | 12 | 5 | 1 | 8 | 0.25 (≈ 0.884 µM) | 0.25 (≈ 0.884 µM) | > 64 | > 64 | > 64 | > 64 | 16 (≈ 56.6 µM) | > 64 | > 64 | 16 (≈ 56.6 µM) | 4 to 16 (≈ 14.2 to 56.6 µM) | –
O=C(O)c1cn(C2CC2)c2cc(N3CCNCC3)c(F)cc2c1=O [CIP, ciprofloxacin, reference compound] | – | – | – | – | – | – | – | – | – | 1 (≈ 3.02 µM) | 2 (≈ 6.04 µM) | – | 0.25 (≈ 0.754 µM) | 1 (≈ 3.02 µM) | ≤ 0.0625 | – | ≤ 0.0625 | ≤ 0.0625 | ≤ 0.0625 | – | MIC (Ab ATCC 19606 [5]): 2 µg/mL (≈ 6.04 µM); bacteriostatic or bactericidal (time-kill) (Ab ATCC 19606 [6]; 1×MIC and 4×MIC, up to 24 h): bactericidal; reduction of colony count (Ab ATCC 19606 [6]; time-kill): 4100 fold
O=C(NNc1cccc(Cl)c1)c1ccccn1 [Compound 2b] | 2 (≈ 8.07 µM) | < 0.5 | ≤ 0.5 | 8 (≈ 32.3 µM) | 13 | 13 | 12 | 3 | 2 | 2 (≈ 8.07 µM) | 1 (≈ 4.04 µM) | 16 (≈ 64.6 µM) | > 64 | > 64 | 16 (≈ 64.6 µM) | 4 (≈ 16.1 µM) | > 64 | > 64 | 4 (≈ 16.1 µM) | 4 to 16 (≈ 16.1 to 64.6 µM) | MIC (P. aeruginosa ATCC 27853; [11]): > 128 µg/mL; MIC (E. coli ATCC BAA 2469): 8 µg/mL (≈ 32.3 µM); MIC [2]: 16 µg/mL (≈ 64.6 µM)
O=C(NNc1ccc(Cl)cc1)c1ccccn1 [Compound 2e] | 0.25 (≈ 1.01 µM) | 0.25 (≈ 1.01 µM) | – | – | 16 | 21 | 1 | – | 5 | 0.25 (≈ 1.01 µM) | 0.25 (≈ 1.01 µM) | 64 (≈ 258 µM) | > 64 | > 64 | 64 (≈ 258 µM) | 64 (≈ 258 µM) | > 64 | > 64 | 16 (≈ 64.6 µM) | – | MIC (B. anthracis Sterne F32; STERNEF32, read-out: MIC B. anthracis Sterne F32): > 16 µg/mL; MIC (S. enterica ATCC 14028; Table 4, read-out: MIC S. enterica ATCC 14028): > 16 µg/mL; MIC (E. cloacae ATCC 13047; Table 4, read-out: MIC E. cloacae ATCC 13047): > 16 µg/mL; MIC ([4]; Table 4, read-out: MIC S. epidermidis ATCC 12228): > 16 µg/mL; MIC (S. aureus ATCC 25923; Table 4, read-out: MIC S. Aureus ATCC 25923): > 16 µg/mL; MIC (Y. pestis CO92): 16 µg/mL (≈ 64.6 µM); MIC (M. smegmatis): 4 µg/mL (≈ 16.1 µM)
